What all share (format): biochemical
Experiment [1] has as its system Rabbit Skeletal myofibrils (rabbit psoas muscle). Kind of experiment: Myofibril ATPase assay (PK/LDH NADH-coupled), skeletal myofibrils. Here is the method: (§1) Myofibril ATPase assays are known in the art to be useful in evaluating small molecules for the treatment of HCM and other cardiac indications. Myosin ATPase activity is assessed by using a coupled reaction system, in which ADP generated by the myosin ATPase function is coupled to the disappearance of NADH through the pyruvate kinase/lactate dehydrogenase (PK-LDH) system. ATPase activity produces ADP, which is used as a substrate for PK to produce pyruvate and regenerate ATP. The pyruvate is then used as a substrate by LDH to oxidize NADH to NAD+. The rate of the reaction is monitored through the time-dependent disappearance of NADH using absorbance at 340 nm, which, when the couple system is in stoichiometric excess, is directly correlated to the ATPase activity of the myosin. Inhibition of ATPase activity by the assayed compounds is indicated by a reduced rate of NADH loss, relative to vehicle-treated controls, over the experimental time window. Rabbit Skeletal and Porcine Ventricle are the primary sources of myofibril material.
(§2) Materials: The following stock solutions and reagents were used in the Myofibril ATPase Assay:
(§3) Stock Solutions of pCa buffer. Combine PIPES, CaCl2), and EGTA solutions with water. Adjust pH to 7.0 and bring final volume to 100 mL.
(§4) Buffer A & Buffer B. Prepare buffers A and B according to the table below.
(§5) Myofibril ATPase Assay Procedure: BSA, ATP, NADH, PEP, and DTT solutions were thawed at room temperature, then transferred to ice. Pellet-frozen myofibrils were transferred with approximately twice the required volume into a sufficiently large tube and capped. Myofibrils were thawed by rolling in a water bath for approximately 15 min at room temperature and cooled on ice. Buffers A and B were prepared by adjusting volumes as necessary for required number of wells and stored on ice. 0.5 μL of the compounds to be assayed were added into wells. 25 μL of Buffer A was dispensed into the wells, followed by 25 μL of Buffer B. The wells were measured for absorbance at 340 nm, using a kinetic protocol in which the wells are read every 1.5-2 min for 75 min. Assay data analysis was performed using a python script that filtered the raw data to retain those points falling between a starting and ending time and between a maximum and minimum absorbance, then used the filtered time-domain 340 nm absorbance data in each well to calculate a slope via linear regression analysis in units of mAU/min. Compound slopes were normalized between 100% and 0% activity, where 100% represented the slope of wells containing only compound vehicle, and fit to a 4-parameter logistic model. In addition to the fit parameters, the EC25% is calculated, relative to the 100% normalized value. In the case of inhibitors, EC50% is also calculated, if available. Fit parameters, calculated effective concentrations, filtered raw data, and calculated slopes were exported, in addition to compound-specific graphs of normalized ATPase activity versus concentration in μM.
Skeletal Myofibril Isolation:
Myofibrils from various animals and tissue types were acquired from a variety of sources: rabbit psoas muscle was purchased from Pel-Freez Biologicals (Rogers, AR) and porcine cardiac muscle was purchased from Exemplar Genetics. All myofibrils were prepared using a method based upon those described in Herrmann et al. (1993) and summarized here. Minced tissue was homogenized for 50 sec with a Polytron homogenizer into 10 volumes (relative to weight in grams) of Isolation Buffer A (50 mM Tris, pH 8.0, 0.1 M potassium acetate, 5 mM KCl, 2 mM DTT, 5 mM EDTA, 0.5% v/v Triton X-100) supplemented with 0.1 mM PMSF, 10 μM leupeptin, 5 μM pepstatin, and 0.5 mM sodium azide. The myofibrils were recovered by centrifugation (Beckman Allegra 6R, 1200 g, 10 min) and resuspended in 10 volumes Isolation Buffer B (Buffer A above without protease inhibitors or sodium azide). The myofibrils were further homogenized as before and recovered by centrifugation. […]

Experiment [2] deals with T1, Porcine Ventricle myofibrils (left ventricle of Yucatan minipigs) (Sus scrofa, UniProt P79293).
T1 construct: Myofibrils from porcine cardiac muscle was isolated from the left ventricle of Yucatan minipigs; tissue Exemplar Genetics; host or cells: left ventricle of Yucatan minipigs
T1 sequence (P79293 whole entry): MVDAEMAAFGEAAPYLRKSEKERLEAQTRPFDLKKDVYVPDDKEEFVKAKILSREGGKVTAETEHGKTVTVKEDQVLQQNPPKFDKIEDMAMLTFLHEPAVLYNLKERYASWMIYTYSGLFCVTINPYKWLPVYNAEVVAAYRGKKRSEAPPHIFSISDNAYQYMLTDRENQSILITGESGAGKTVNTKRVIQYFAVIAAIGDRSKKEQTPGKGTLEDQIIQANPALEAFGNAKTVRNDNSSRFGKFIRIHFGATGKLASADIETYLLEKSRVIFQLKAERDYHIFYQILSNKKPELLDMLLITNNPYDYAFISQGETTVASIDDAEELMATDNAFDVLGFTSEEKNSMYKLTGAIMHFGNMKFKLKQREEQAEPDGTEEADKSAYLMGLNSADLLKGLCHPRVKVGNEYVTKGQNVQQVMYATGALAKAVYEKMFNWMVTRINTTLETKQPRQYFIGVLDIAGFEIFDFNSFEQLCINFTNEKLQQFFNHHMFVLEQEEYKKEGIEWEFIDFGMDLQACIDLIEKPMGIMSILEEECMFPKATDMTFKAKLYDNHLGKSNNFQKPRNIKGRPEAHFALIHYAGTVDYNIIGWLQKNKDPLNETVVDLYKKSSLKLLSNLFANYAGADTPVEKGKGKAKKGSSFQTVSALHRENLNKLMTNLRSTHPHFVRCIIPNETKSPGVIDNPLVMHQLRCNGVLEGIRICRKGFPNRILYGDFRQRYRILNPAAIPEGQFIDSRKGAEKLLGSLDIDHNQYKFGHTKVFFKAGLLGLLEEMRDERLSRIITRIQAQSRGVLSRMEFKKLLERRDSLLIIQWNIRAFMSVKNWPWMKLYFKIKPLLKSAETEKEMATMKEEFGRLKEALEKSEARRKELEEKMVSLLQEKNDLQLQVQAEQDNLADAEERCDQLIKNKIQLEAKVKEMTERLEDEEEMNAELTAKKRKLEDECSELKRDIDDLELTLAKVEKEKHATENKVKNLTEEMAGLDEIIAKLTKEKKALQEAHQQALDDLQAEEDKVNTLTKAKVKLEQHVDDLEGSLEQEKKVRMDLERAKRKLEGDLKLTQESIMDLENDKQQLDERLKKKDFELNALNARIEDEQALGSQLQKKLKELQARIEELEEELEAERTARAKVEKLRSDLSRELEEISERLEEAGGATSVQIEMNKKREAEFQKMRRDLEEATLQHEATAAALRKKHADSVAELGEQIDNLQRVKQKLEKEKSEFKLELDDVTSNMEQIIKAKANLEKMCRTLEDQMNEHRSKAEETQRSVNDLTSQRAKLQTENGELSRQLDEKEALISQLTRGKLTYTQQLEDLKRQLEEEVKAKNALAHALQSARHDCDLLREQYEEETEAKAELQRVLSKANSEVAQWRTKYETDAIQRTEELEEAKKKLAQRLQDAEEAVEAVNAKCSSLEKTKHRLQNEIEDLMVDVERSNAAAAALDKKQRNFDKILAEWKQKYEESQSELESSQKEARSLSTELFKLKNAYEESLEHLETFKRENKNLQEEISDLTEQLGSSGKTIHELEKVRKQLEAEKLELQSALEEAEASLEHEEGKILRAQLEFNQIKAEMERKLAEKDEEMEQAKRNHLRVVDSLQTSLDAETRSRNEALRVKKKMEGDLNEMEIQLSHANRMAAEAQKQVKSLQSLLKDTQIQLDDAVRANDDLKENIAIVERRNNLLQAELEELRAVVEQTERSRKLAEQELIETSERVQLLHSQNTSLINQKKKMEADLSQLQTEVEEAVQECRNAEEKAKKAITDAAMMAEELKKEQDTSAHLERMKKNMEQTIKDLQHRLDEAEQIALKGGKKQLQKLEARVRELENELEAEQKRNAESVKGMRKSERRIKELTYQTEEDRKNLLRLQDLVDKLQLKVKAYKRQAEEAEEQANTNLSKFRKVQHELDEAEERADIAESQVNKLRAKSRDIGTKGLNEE
Kind of experiment: Myofibril ATPase assay (PK/LDH NADH-coupled), ventricle myofibrils. Here is the method:
as §1, §2, §3, §4, §5
Cardiac Myofibril Isolation:
Myofibrils from porcine cardiac muscle was isolated from the left ventricle of Yucatan minipigs. Myofibrils were prepared using a method based upon those described in Herrmann et al. (1993) and summarized here. Minced tissue was homogenized for 50 sec with a Polytron homogenizer into 10 volumes (relative to weight in grams) of Isolation Buffer A (75 mM KCl, 10 mM Imidazole, 2 mM MgCl2, 2 mM EGTA, 1 mM NaN3, 1% v/v Triton X-100) supplemented with 4 mM Phosphocreatine, 1 mM ATP, 50 mM BDM, 1 mM DTT, 1 mM Benzamide HCl, 0.1 mM PMSF, 10 μM leupeptin, 5 μM pepstatin, and 10 mM EDTA. The myofibrils were recovered by centrifugation (Beckman Allegra 6R, 1200 g, 15 min) and resuspended in 10 volumes Isolation Buffer B (Buffer A above without supplemental reagents). The myofibrils were further homogenized described above and recovered by centrifugation for 7 mins. Cellular membranes and debris were removed by 3 washes in Isolation Buffer B, centrifuging each as before. […]

For experiment [3], the system named is Porcine Atria myofibrils. Kind of experiment: Myofibril ATPase assay (PK/LDH NADH-coupled), atria myofibrils. Here is the method:
as §5

As to `N#Cc1cc(F)c2c(c1)OC[C@H]2NC(=O)CN1C(=O)Nc2ccc(F)c(F)c2C12CC2` [Compound B319], in experiment [1] (Table 8), the “Rabbit Psoas IC25” value is 5960 nM. In experiment [2] (Table 8), the “Porcine Ventricle IC25” value was found to be 100 nM. In experiment [3] (Table 8), the “Porcine Atria IC25” value came out at 70 nM.

For the molecule `C[C@H](NC(=O)CN1C(=O)Nc2ccc(F)cc2C12CC2)c1ccc(F)cc1F` [Compound B221], the “Rabbit Psoas IC25” value in experiment [1] (Table 8) was found to be 17.4 nM. Further, the “Porcine Ventricle IC25” value in experiment [2] (Table 8) was determined as 108.6 nM. In addition, the “Porcine Atria IC25” value in experiment [3] (Table 8) worked out at 30 nM.

Regarding `C[C@@H](NC(=O)C1(N2Cc3c(ccc(F)c3F)NC2=O)CC1)c1ncc(C#N)cc1F` [Compound B268], the “Rabbit Psoas IC25” value in experiment [1] (Table 8) amounted to 6910 nM. In experiment [2] (Table 8), the “Porcine Ventricle IC25” value was 3060 nM. Further, the “Porcine Atria IC25” value in experiment [3] (Table 8) was determined as 110 nM.

As for `C[C@H](NC(=O)[C@@H](C)N1Cc2cc(F)ccc2NC1=O)c1ccc(F)cc1F` [Compound B241], in experiment [1] (Table 8), the “Rabbit Psoas IC25” value came to 34 nM. For the same molecule, the “Porcine Ventricle IC25” value in experiment [2] (Table 8) came out at 1243 nM. The “Porcine Atria IC25” value in experiment [3] (Table 8) was 110 nM.

Turning to `O=C(CN1Cc2c(ccc(F)c2F)NC1=O)N[C@@H]1CS(=O)(=O)c2cc(F)cc(F)c21` [Compound B18], the “Rabbit Psoas IC25” value in experiment [1] (Table 8) amounted to 100000 nM. For the same molecule, the “Porcine Ventricle IC25” value in experiment [2] (Table 8) was determined as 100000 nM. Further, the “Porcine Atria IC25” value in experiment [3] (Table 8) stood at 2250 nM.

Regarding `CC(NC(=O)CN1Cc2cc(F)ccc2NC1=O)c1ccc(C#N)cc1F` (stereo not drawn) [Compound B78], the “Rabbit Psoas IC25” value in experiment [1] (Table 8) worked out at 41.7 nM. Further, the “Porcine Ventricle IC25” value in experiment [2] (Table 8) turned out to be 109.1 nM. Besides, the “Porcine Atria IC25” value in experiment [3] (Table 8) came to 40 nM.

In the case of `C[C@H](NC(=O)CN1Cc2c(C#N)cccc2NC1=O)c1ccc(C#N)cn1` [Compound B116, 2-(5-Cyano-2-oxo-1,4-dihydroquinazolin-3-yl)-N-[(1S)-1-(5-cyanopyridin-2-yl)ethyl]acetamide], the “Rabbit Psoas IC25” value in experiment [1] (Table 8) came to 74.3 nM. For the same molecule, the “Porcine Ventricle IC25” value in experiment [2] (Table 8) is 672.1 nM. In experiment [3] (Table 8), the “Porcine Atria IC25” value came to 220 nM.

For the molecule `C[C@H](NC(=O)CN1Cc2c(ccnc2C#N)NC1=O)c1ccc(C#N)cc1F` [Compound N23], in experiment [1] (Table 7), the “Rabbit Psoas IC25” value is 16.5 nM. For the same molecule, in experiment [2] (Table 7), the “Porcine Ventricle IC25” value turned out to be 162.5 nM. The “Porcine Atria IC25” value in experiment [3] (Table 7) was found to be 280 nM.

`C[C@H](NC(=O)[C@H](C)N1Cc2nc(F)ccc2NC1=O)c1ccc(F)cc1` [Compound N98]: the “Rabbit Psoas IC25” value in experiment [1] (Table 7) was determined as 8570 nM. In experiment [2] (Table 7), the “Porcine Ventricle IC25” value came to 71640 nM. The “Porcine Atria IC25” value in experiment [3] (Table 7) came out at 360 nM.

In the case of `C[C@@H](NC(=O)CN1Cc2cc(F)ccc2NC1=O)c1ncccn1` [Compound B215], the “Rabbit Psoas IC25” value in experiment [1] (Table 8) stood at 100000 nM. The “Porcine Ventricle IC25” value in experiment [2] (Table 8) was found to be 100000 nM. For the same molecule, the “Porcine Atria IC25” value in experiment [3] (Table 8) was found to be 100000 nM.

As for `Cc1cc([C@H](C)NC(=O)CN2Cc3c(ccc(F)c3F)NC2=O)ncc1C#N` (single isomer, unassigned) [Compound B35], the “Rabbit Psoas IC25” value in experiment [1] (Table 8) turned out to be 1252 nM. The “Porcine Ventricle IC25” value in experiment [2] (Table 8) is 948 nM. Moreover, the “Porcine Atria IC25” value in experiment [3] (Table 8) stood at 580 nM.

In the case of `C[C@H](NC(=O)[C@H](C)N1Cc2c(ccnc2Cl)NC1=O)c1ccc(F)cc1F` [Compound N114], the “Rabbit Psoas IC25” value in experiment [1] (Table 7) came out at 289.2 nM. Further, the “Porcine Ventricle IC25” value in experiment [2] (Table 7) worked out at 8373 nM. For the same molecule, in experiment [3] (Table 7), the “Porcine Atria IC25” value was determined as 2300 nM.

Consider `C[C@H](NC(=O)[C@@H](C)N1Cc2ncccc2NC1=O)c1ccc(F)cc1F` [Compound N84], for which, in experiment [1] (Table 7), the “Rabbit Psoas IC25” value amounted to 10250 nM. Besides, in experiment [2] (Table 7), the “Porcine Ventricle IC25” value was 100000 nM. In addition, in experiment [3] (Table 7), the “Porcine Atria IC25” value is 3690 nM.

On to `Cc1cc(F)cc2c1NC(=O)N(CC(=O)N[C@@H](C)c1ccc(C#N)cc1F)C2` [Compound B59, N-[(1S)-1-(4-cyano-2-fluorophenyl)ethyl]-2-(6-fluoro-8-methyl-2-oxo-1,4-dihydroquinazolin-3-yl)acetamide], for which the “Rabbit Psoas IC25” value in experiment [1] (Table 8) is 81.8 nM. In addition, the “Porcine Ventricle IC25” value in experiment [2] (Table 8) came to 951.9 nM. For the same molecule, the “Porcine Atria IC25” value in experiment [3] (Table 8) amounted to 630 nM.

The values are drawn from US12509431B2, “1,4-dihydroquinazolinone compounds and uses thereof” (Edgewise Therapeutics, Inc., priority 2022, dated 2025).
